Source: PubChem BioAssay AID248 (DTP/NCI, 2004)
Several values for one entry are separate records, joined by “and”; a condition that tells them apart may be missing. Equal entries are not always repeated. Toxic doses and inconclusive results are not listed. Cut-off read from the data, not from the text of the source: active = T/C of 150% or more; inactive = T/C below 125%.

Tested on: L1210 leukemia ip in BDF1 mice, survival T/C
Experiment: NCI In Vivo Anticancer Drug Screen. Data for tumor model L1210 Leukemia (intraperitoneal) in B6D2F1 (BDF1) mice
Details: endpoint: mean survival time, higher = longer survival
Summary of the method: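 In this screen, tumor-bearing mice given compound are compared to those given vehicle, and their survival values are reported as a treated-to-control quotient.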

[1] = dose: 50.0 mg/kg/injection, schedule: Q04DX003 (ip), vehicle: saline with Tween-80
[2] = dose: 100.0 mg/kg/injection, schedule: Q04DX003 (ip), vehicle: saline with Tween-80
[3] = dose: 100.0 mg/kg/injection, schedule: Q01DX009 (ip), vehicle: Klucel (hydroxypropylcellulose) (HPC)
[4] = dose: 100.0 mg/kg/injection, schedule: Q04DX002 (ip), vehicle: Klucel (hydroxypropylcellulose) (HPC)
[5] = dose: 200.0 mg/kg/injection, schedule: Q01DX009 (ip), vehicle: Klucel (hydroxypropylcellulose) (HPC)
[6] = dose: 200.0 mg/kg/injection, schedule: Q04DX002 (ip), vehicle: Klucel (hydroxypropylcellulose) (HPC)
[7] = dose: 400.0 mg/kg/injection, schedule: Q01DX009 (ip), vehicle: Klucel (hydroxypropylcellulose) (HPC)
[8] = dose: 100.0 mg/kg/injection, schedule: Q04DX003 (ip), vehicle: acetone
[9] = dose: 100.0 mg/kg/injection, schedule: Q04DX003 (ip), vehicle: saline
[10] = dose: 200.0 mg/kg/injection, schedule: Q04DX003 (ip), vehicle: saline
[11] = dose: 100.0 mg/kg/injection, schedule: Q01DX001 (ip), vehicle: other
[12] = dose: 200.0 mg/kg/injection, schedule: Q01DX001 (ip), vehicle: other
[13] = dose: 400.0 mg/kg/injection, schedule: Q01DX001 (ip), vehicle: other

Measured: T/C

CC(=O)Nc1cccc2c1C(=O)c1c(c(O)c3ccccc3c1O)C2=O
inactive: dose: 0.12 mg/kg/injection, schedule: Q01DX009 (ip), vehicle: Klucel (hydroxypropylcellulose) (HPC) 101 % of control | dose: 0.25 mg/kg/injection, schedule: Q01DX009 (ip), vehicle: Klucel (hydroxypropylcellulose) (HPC) 100 % of control | dose: 0.25 mg/kg/injection, schedule: Q04DX003 (ip), vehicle: Klucel (hydroxypropylcellulose) (HPC) 97 % of control | dose: 0.5 mg/kg/injection, schedule: Q01DX009 (ip), vehicle: Klucel (hydroxypropylcellulose) (HPC) 102 % of control | dose: 0.5 mg/kg/injection, schedule: Q04DX003 (ip), vehicle: Klucel (hydroxypropylcellulose) (HPC) 97 % of control | dose: 1.0 mg/kg/injection, schedule: Q01DX009 (ip), vehicle: Klucel (hydroxypropylcellulose) (HPC) 97 % of control | dose: 1.0 mg/kg/injection, schedule: Q04DX003 (ip), vehicle: Klucel (hydroxypropylcellulose) (HPC) 97 % of control | dose: 2.0 mg/kg/injection, schedule: Q01DX009 (ip), vehicle: Klucel (hydroxypropylcellulose) (HPC) 98 % of control | dose: 2.0 mg/kg/injection, schedule: Q04DX003 (ip), vehicle: Klucel (hydroxypropylcellulose) (HPC) 101 % of control | dose: 2.0 mg/kg/injection, schedule: Q04DX003 (ip), vehicle: water 95 % of control | dose: 3.12 mg/kg/injection, schedule: Q01DX009 (ip), vehicle: saline with Tween-80 102 % of control | dose: 4.0 mg/kg/injection, schedule: Q01DX009 (ip), vehicle: Klucel (hydroxypropylcellulose) (HPC) 105 % of control | dose: 4.0 mg/kg/injection, schedule: Q04DX003 (ip), vehicle: water 100 % of control | dose: 6.25 mg/kg/injection, schedule: Q01DX009 (ip), vehicle: saline with Tween-80 100 % of control | dose: 8.0 mg/kg/injection, schedule: Q04DX003 (ip), vehicle: water 102 % of control | dose: 12.5 mg/kg/injection, schedule: Q01DX009 (ip), vehicle: saline with Tween-80 97 % of control | dose: 12.5 mg/kg/injection, schedule: Q04DX003 (ip), vehicle: saline with Tween-80 100 % of control | dose: 16.0 mg/kg/injection, schedule: Q04DX003 (ip), vehicle: water 96 % of control and 103 % of control | dose: 25.0 mg/kg/injection, schedule: Q01DX009 (ip), vehicle: saline with Tween-80 102 % of control | dose: 25.0 mg/kg/injection, schedule: Q04DX003 (ip), vehicle: saline with Tween-80 96 % of control | dose: 32.0 mg/kg/injection, schedule: Q04DX003 (ip), vehicle: water 96 % of control | dose: 50.0 mg/kg/injection, schedule: Q01DX009 (ip), vehicle: saline with Tween-80 96 % of control | [1] 103 % of control | dose: 64.0 mg/kg/injection, schedule: Q04DX003 (ip), vehicle: water 97 % of control | [2] 96 % of control

Cc1nc(Br)c(C(O)c2ccccc2)n1C (stereo not drawn)
inactive: [3] 100 % of control and 103 % of control | [4] 101 % of control and 103 % of control | dose: 100.0 mg/kg/injection, schedule: Q04DX003 (ip), vehicle: Klucel (hydroxypropylcellulose) (HPC) 93 % of control | [5] 95 % of control and 109 % of control | [6] 101 % of control and 103 % of control | dose: 200.0 mg/kg/injection, schedule: Q04DX003 (ip), vehicle: Klucel (hydroxypropylcellulose) (HPC) 97 % of control | [7] 95 % of control and 117 % of control | dose: 400.0 mg/kg/injection, schedule: Q04DX002 (ip), vehicle: Klucel (hydroxypropylcellulose) (HPC) 98 % of control and 100 % of control | dose: 400.0 mg/kg/injection, schedule: Q04DX003 (ip), vehicle: Klucel (hydroxypropylcellulose) (HPC) 95 % of control

CCOC(=O)CN1C(=O)NC(CC)(CC)C1=O
inactive: dose: 100.0 mg/kg/injection, schedule: Q01DX009 (ip), vehicle: saline 96 % of control | [8] 104 % of control | dose: 200.0 mg/kg/injection, schedule: Q01DX009 (ip), vehicle: saline 94 % of control | dose: 200.0 mg/kg/injection, schedule: Q04DX003 (ip), vehicle: acetone 107 % of control | dose: 400.0 mg/kg/injection, schedule: Q01DX009 (ip), vehicle: saline 105 % of control | dose: 400.0 mg/kg/injection, schedule: Q04DX003 (ip), vehicle: acetone 102 % of control

CC(N)CC(C)(C)N (stereo not drawn)
inactive: dose: 50.0 mg/kg/injection, schedule: Q04DX003 (ip), vehicle: saline 90 % of control | [9] 91 % of control | [10] 90 % of control

c1ccc(P(=NC2CCCCC2)(c2ccccc2)c2ccccc2)cc1
inactive: dose: 50.0 mg/kg/injection, schedule: Q04DX003 (ip), vehicle: acetone 96 % of control | [8] 94 % of control

O=C1CCS(=O)(=O)CC1
inactive: [1] 92 % of control | [2] 90 % of control | dose: 200.0 mg/kg/injection, schedule: Q04DX003 (ip), vehicle: saline with Tween-80 89 % of control

O=C1CCN2CCC(=O)c3c(Cl)ccc1c32
inactive: [11] 100 % of control | [12] 97 % of control | [13] 100 % of control

CCCCCCCCOC(=O)c1[nH]cnc1/N=N/N(C)C1CCCCC1
inactive: [11] 93 % of control | [12] 96 % of control | [13] 91 % of control

CC(=O)c1c(C)cc(C)nc1C
inactive: dose: 100.0 mg/kg/injection, schedule: Q01DX001 (ip), vehicle: saline 96 % of control | dose: 200.0 mg/kg/injection, schedule: Q01DX001 (ip), vehicle: saline 102 % of control

O=C(N/N=C/C(CC(O)C(O)CO)=N/NC(=O)c1ccc(Cl)cc1)c1ccc(Cl)cc1 (stereo not drawn)
inactive: [3] 109 % of control | [5] 97 % of control

O=C1OCC/C1=C/OC(=O)c1ccccc1
inactive: [4] 97 % of control | [6] 87 % of control

Cc1cc(C(C)(C)CC(C)(C)C)ccc1O
inactive: dose: 100.0 mg/kg/injection, schedule: Q01DX009 (sc), vehicle: olive oil, sesame oil, peanut oil 100 % of control | dose: 100.0 mg/kg/injection, schedule: Q04DX003 (sc), vehicle: olive oil, sesame oil, peanut oil 110 % of control | dose: 200.0 mg/kg/injection, schedule: Q01DX009 (sc), vehicle: olive oil, sesame oil, peanut oil 100 % of control | dose: 200.0 mg/kg/injection, schedule: Q04DX003 (sc), vehicle: olive oil, sesame oil, peanut oil 101 % of control | dose: 400.0 mg/kg/injection, schedule: Q01DX009 (sc), vehicle: olive oil, sesame oil, peanut oil 96 % of control | dose: 400.0 mg/kg/injection, schedule: Q04DX003 (sc), vehicle: olive oil, sesame oil, peanut oil 105 % of control

Cn1cnc([N+](=O)[O-])c1SC#N
inactive: dose: 15.0 mg/kg/injection, schedule: Q01DX001 (ip), vehicle: carboxymethylcellulose (CMC) 100 % of control

O=S1(=O)OCc2ccccc21
inactive: dose: 50.0 mg/kg/injection, schedule: Q01DX009 (ip), vehicle: acetone 106 % of control | dose: 100.0 mg/kg/injection, schedule: Q01DX001 (ip), vehicle: carboxymethylcellulose (CMC) 100 % of control | dose: 100.0 mg/kg/injection, schedule: Q01DX009 (ip), vehicle: acetone 97 % of control | [9] 100 % of control | dose: 200.0 mg/kg/injection, schedule: Q01DX001 (ip), vehicle: carboxymethylcellulose (CMC) 100 % of control | [10] 94 % of control

CCOC(=O)c1ccc(NC(=O)Oc2ccccc2C(=O)OCc2ccccc2)cc1
inactive: [3] 98 % of control | [5] 95 % of control | [7] 96 % of control

c1cc[c]([Pb]([S]c2nc3ccccc3[nH]2)([c]2ccccc2)[c]2ccccc2)cc1
inactive: dose: 3.12 mg/kg/injection, schedule: Q04DX002 (ip), vehicle: gum acacia 104 % of control | dose: 6.25 mg/kg/injection, schedule: Q04DX002 (ip), vehicle: gum acacia 101 % of control | dose: 12.5 mg/kg/injection, schedule: Q04DX002 (ip), vehicle: gum acacia 97 % of control and 101 % of control

COc1ccc(Cl)cc1NS(=O)(=O)c1cccc([N+](=O)[O-])c1
inactive: [3] 96 % of control | [5] 98 % of control | [7] 91 % of control

COc1ccc2nc3c4ccccc4scc-3c2c1
inactive: [2] 92 % of control
